In brackets after ≈: the same amount, converted by molar mass. Like-named read-outs stand apart in the source and are kept apart here.
Assays:
[1] = acute toxicity test; conditions: in vivo; acute toxicity, intravenous injection
[2] = test system: Streptococcus pyogenes A 77; test: MIC, standard strain 2; format: cell-based; conditions: read-out: Minimal Inhibitory Concentration(MIC)
Protocol: (§1) In order to illustrate antibiotic effectiveness of the compounds of the present invention, the minimal inhibitory concentrations (MIC's) of the representative compounds were determined against standard strains and compared with ceftazidime and cefpirome, which were used as control compounds.
(§2) The MIC values were taken by employing a two-fold dilution method: that is, two-fold serial dilutions of each of the test compounds were made from initial concentration of […]; each 1.5 ml of them was dispersed in 13.5 ml of Muller Hinton agar medium to adjust to […]; the standard test strain which had the concentration of 10^7 CFU/ml was inoculated by medium;and these were incubated at 37° C. for 18 hours.
(§3) The test used twenty kinds of standard test strains which induced urinary tract infections, respiratory organ infections, skin soft tissue infections, plasma infections, gastrointestinal infections, central nervous system infections, most of which produce β-lactamase. The standard test strains used are as follows:
2. Streptococcus pyogenes A 77

[3] = test system: Pseudomonas aeruginosa 9.027; test: MIC, standard strain 12; format: cell-based; conditions: read-out: Minimal Inhibitory Concentration(MIC)
Protocol: as §1, §2, §3
12. Pseudomonas aeruginosa 9.027

[4] = test system: Salmonella typhimurium; test: MIC, standard strain 16; format: cell-based; conditions: Salmonella enterica, read-out: Minimal Inhibitory Concentration(MIC)
Protocol: as §1, §2, §3
16. Salmonella typhimurium

[5] = test system: Pseudomonas aeruginosa 1592 E; test: MIC, standard strain 13; format: cell-based; conditions: read-out: Minimal Inhibitory Concentration(MIC)
Protocol: as §1, §2, §3
13. Pseudomonas aeruginosa 1592 E

[6] = test system: Escherichia coli DC 0; test: MIC, standard strain 8; format: cell-based; conditions: DC0, E. coli DC 0, two-fold dilution, Muller Hinton agar, 10^7 CFU/ml, 37° C., 18 hours, read-out: Minimal Inhibitory Concentration(MIC)
Protocol: as §1, §2
(§4) The test used twenty kinds of standard test strains which induced urinary tract infections, respiratory organ infections, skin soft tissue infections, plasma infections, gastrointestinal infections, central nervous system infections, most of which produce β-lactamase.

[7] = test system: Staphylococcus aureus 285; test: MIC, standard strain 5; format: cell-based; conditions: read-out: Minimal Inhibitory Concentration(MIC)
Protocol: as §1, §2, §3
5. Staphylococcus aureus 285

[8] = test system: Pseudomonas aeruginosa 1771M; test: MIC, standard strain 15; format: cell-based; conditions: 18 h, read-out: Minimal Inhibitory Concentration(MIC)
Protocol: as §1, §2, §3
15. Pseudomonas aeruginosa 1771M

[9] = test system: Escherichia coli 0 55; test: MIC, standard strain 7; format: cell-based; conditions: 055, E. coli 0 55, two-fold dilution, Muller Hinton agar, 10^7 CFU/ml, 37° C., 18 hours, read-out: Minimal Inhibitory Concentration(MIC)
Protocol: as §1, §2, §4

[10] = test system: Escherichia coli 1507 E; test: MIC, standard strain 11; format: cell-based; conditions: read-out: Minimal Inhibitory Concentration(MIC)
Protocol: as §1, §2, §4

[11] = test system: Klebsiella aerogenes 1552 E; test: MIC, standard strain 18; format: cell-based; conditions: read-out: Minimal Inhibitory Concentration(MIC)
Protocol: as §1, §2, §3
18. Klebsiella aerogenes 1552 E

[12] = test system: Enterobacter cloacae P 99; test: MIC, standard strain 19; format: cell-based; conditions: P99, 18 h, read-out: Minimal Inhibitory Concentration(MIC)
Protocol: as §1, §2, §3
19. Enterobacter cloacae P 99

[13] = test system: Escherichia coli TEM; test: MIC, standard strain 10; format: cell-based; conditions: 18 h, read-out: Minimal Inhibitory Concentration(MIC)
Protocol: as §1, §2, §4

[14] = test system: Streptococcus pyogenes A 308; test: MIC, standard strain 1; format: cell-based; conditions: read-out: Minimal Inhibitory Concentration(MIC)
Protocol: as §1, §2, §3
1. Streptococcus pyogenes A 308

[15] = test system: Streptococcus faecium 8b; test: MIC, standard strain 3; format: cell-based; conditions: Enterococcus faecium, read-out: Minimal Inhibitory Concentration(MIC)
Protocol: as §1, §2, §3
3. Streptococcus faecium 8b

[16] = test system: MRSA(Yonsei Univ.); test: MIC, clinically separated strains; format: cell-based
Protocol: as §2

[17] = test system: Enterobacter cloacae 1321 E; test: MIC, standard strain 20; format: cell-based; conditions: read-out: Minimal Inhibitory Concentration(MIC)
Protocol: as §1, §2, §3
20. Enterobacter cloacae 1321 E

[18] = test system: Escherichia coli DC 2; test: MIC, standard strain 9; format: cell-based; conditions: DC2, E. coli DC 2, two-fold dilution, Muller Hinton agar, 10^7 CFU/ml, 37° C., 18 hours, read-out: Minimal Inhibitory Concentration(MIC)
Protocol: as §1, §2, §4

[19] = test system: Staphylococcus aureus 503; test: MIC, standard strain 6; format: cell-based; conditions: read-out: Minimal Inhibitory Concentration(MIC)
Protocol: as §1, §2, §3
6. Staphylococcus aureus 503

[20] = test system: Pseudomonas aeruginosa 1771; test: MIC, standard strain 14; format: cell-based; conditions: read-out: Minimal Inhibitory Concentration(MIC)
Protocol: as §1, §2, §3
14. Pseudomonas aeruginosa 1771

[21] = test system: Staphylococcus aureus SG 511; test: MIC, standard strain 4; format: cell-based; conditions: read-out: Minimal Inhibitory Concentration(MIC)
Protocol: as §1, §2, §3
4. Staphylococcus aureus SG 511

[22] = test system: Pseudomonas; conditions: compared with DQ-2556 or ceftazidime; cited from earlier work
[23] = test system: Staphylococcus; conditions: compared with DQ-2556; cited from earlier work
[24] = A77, S. pyogenes A 77, two-fold dilution, Muller Hinton agar, 10^7 CFU/ml, 37° C., 18 hours
[25] = Pseudomonas aeruginosa, P. aeruginosa 9.027, two-fold dilution, Muller Hinton agar, 10^7 CFU/ml, 37° C., 18 hours
[26] = S. typhimurium, two-fold dilution, Muller Hinton agar, 10^7 CFU/ml, 37° C., 18 hours
[27] = P. aeruginosa 1592 E, two-fold dilution, Muller Hinton agar, 10^7 CFU/ml, 37° C., 18 hours
[28] = Staphylococcus aureus, S. aureus 285, two-fold dilution, Muller Hinton agar, 10^7 CFU/ml, 37° C., 18 hours
[29] = E. coli 1507 E, two-fold dilution, Muller Hinton agar, 10^7 CFU/ml, 37° C., 18 hours
[30] = K. aerogenes 1552 E, two-fold dilution, Muller Hinton agar, 10^7 CFU/ml, 37° C., 18 hours
[31] = S. faecium 8b, two-fold dilution, Muller Hinton agar, 10^7 CFU/ml, 37° C., 18 hours
[32] = E. cloacae 1321 E, two-fold dilution, Muller Hinton agar, 10^7 CFU/ml, 37° C., 18 hours
[33] = Staphylococcus aureus, S. aureus 503, two-fold dilution, Muller Hinton agar, 10^7 CFU/ml, 37° C., 18 hours
[34] = Pseudomonas aeruginosa, P. aeruginosa 1771, two-fold dilution, Muller Hinton agar, 10^7 CFU/ml, 37° C., 18 hours
[35] = A308, S. pyogenes A 308, two-fold dilution, Muller Hinton agar, 10^7 CFU/ml, 37° C., 18 hours

Structure (SMILES) | MIC [2, 24] [µg/mL] | MIC [3, 25] [µg/mL] | MIC [4, 26] [µg/mL] | MIC [5, 27] [µg/mL] | MIC [6] [µg/mL] | MIC [7, 28] [µg/mL] | MIC [8] [µg/mL] | MIC [9] [µg/mL] | MIC [10, 29] [µg/mL] | MIC [11, 30] [µg/mL] | MIC [12] [mg/mL] | MIC [13] [µg/mL] | MIC ([14]; A308, 18 h) [µg/mL] | MIC [15, 31] [mg/mL] | MIC [17, 32] [µg/mL] | MIC [18] [µg/mL] | MIC [19, 33] [µg/mL] | MIC [20, 34] [µg/mL] | MIC ([21]; SG511, 18 h) [µg/mL] | MIC [14, 35] [µg/mL] | other results
CO/N=C(\C(=O)N[C@@H]1C(=O)N2C(C(=O)[O-])=C(C[n+]3ccc(C(N)=S)c4c3CCC4)CS[C@H]12)c1csc(N)n1 [Example 5, 7-β-[(Z)-2-(2-aminothiazol-4-yl)-2-methoxyiminoacetamido]-3-[(2,3-cyclopenteno-4-thiocarbamoyl-1-pyridinium)methyl]-3-cephem-4-carboxylate] | 2 (≈ 3.49 µM) | 6250 (≈ 10900 µM) | 49 (≈ 85.4 µM) | 3120 (≈ 5450 µM) | 98 (≈ 171 µM) | 1560 (≈ 2720 µM) | 391 (≈ 682 µM) | 49 (≈ 85.4 µM) | 98 (≈ 171 µM) | 49 (≈ 85.4 µM) | 6.25 (≈ 10900 µM) | 98 (≈ 171 µM) | 4 (≈ 6.97 µM) | 12.5 (≈ 21800 µM) | 13 (≈ 22.7 µM) | 25 (≈ 43.6 µM) | 391 (≈ 682 µM) | 1560 (≈ 2720 µM) | 781 (≈ 1360 µM) | – | LD50 [1]: > 3000 mg/kg; antibiotic activities against MRSA(Yonsei Univ.), in words [16]: unexpectedly potent antibiotic activities
CO/N=C(\C(=O)N[C@@H]1C(=O)N2C(C(=O)[O-])=C(C[n+]3ccc(NC=O)c4c3CCC4)CS[C@H]12)c1csc(N)n1 [Example 19] | < 2 | 12500 (≈ 22400 µM) | 195 (≈ 350 µM) | 12500 (≈ 22400 µM) | 13 (≈ 23.3 µM) | 391 (≈ 701 µM) | 1560 (≈ 2800 µM) | 7 (≈ 12.6 µM) | 98 (≈ 176 µM) | 49 (≈ 87.9 µM) | 12.5 (≈ 22400 µM) | 49 (≈ 87.9 µM) | – | 25 (≈ 44800 µM) | 7 (≈ 12.6 µM) | 13 (≈ 23.3 µM) | 98 (≈ 176 µM) | 12500 (≈ 22400 µM) | – | < 2 | MIC ([21]; SG511, S. aureus SG 511, two-fold dilution, Muller Hinton agar, 10^7 CFU/ml, 37° C., 18 hours): 391 µg/mL (≈ 701 µM)
CO/N=C(\C(=O)N[C@@H]1C(=O)N2C(C(=O)[O-])=C(C[n+]3ccc(-c4nc(C)cs4)c4c3CCC4)CS[C@H]12)c1csc(N)n1 [Example 25, 7-β-[(Z)-2-(2-aminothiazol-4-yl)-2-methoxyiminoacetamido]-3-[(2,3-cyclopenteno-4-(4-methylthiazol-2-yl)-1-pyridinium)methyl]-3-cephem-4-carboxylate] | 2 (≈ 3.27 µM) | 100000 (≈ 163000 µM) | – | 50000 (≈ 81700 µM) | 25 (≈ 40.9 µM) | 781 (≈ 1280 µM) | 1560 (≈ 2560 µM) | 195 (≈ 319 µM) | 781 (≈ 1280 µM) | 781 (≈ 1280 µM) | 25 (≈ 40900 µM) | 391 (≈ 639 µM) | – | 12.5 (≈ 20400 µM) | 98 (≈ 160 µM) | 25 (≈ 40.9 µM) | 195 (≈ 319 µM) | 50000 (≈ 81700 µM) | 391 (≈ 639 µM) | 4 (≈ 6.54 µM) | MIC ([4]; TYPHIMURIUM, 18 h): 391 µg/mL (≈ 639 µM)
CC(C)(O/N=C(\C(=O)N[C@@H]1C(=O)N2C(C(=O)[O-])=C(C[n+]3ccccc3)CS[C@H]12)c1csc(N)n1)C(=O)O [ceftazidime, reference compound] | – | – | – | – | 98 (≈ 179 µM) | – | 98 (≈ 179 µM) | 98 (≈ 179 µM) | – | – | 100 (≈ 183000 µM) | 195 (≈ 357 µM) | 98 (≈ 179 µM) | – | – | 98 (≈ 179 µM) | – | – | 12500 (≈ 22900 µM) | – | activity against Pseudomonas, in words [22]: higher activity against Pseudomonas; MIC ([2]; A77, 18 h): 49 µg/mL (≈ 89.6 µM); MIC ([3]; Pseudomonas aeruginosa, 9.027, 18 h): 3120 µg/mL (≈ 5720 µM); MIC ([4]; TYPHIMURIUM, 18 h): 195 µg/mL (≈ 357 µM); MIC ([5]; 1592E, 18 h): 781 µg/mL (≈ 1430 µM); activity against Staphylococcus, in words [23]: relatively low activity against Staphylococcus; MIC ([7]; Staphylococcus aureus, 285, 18 h): 12500 µg/mL (≈ 22900 µM); MIC ([10]; 1507E, 18 h): 195 µg/mL (≈ 357 µM); MIC ([11]; 1552E, 18 h): 98 µg/mL (≈ 179 µM); MIC ([15]; 8B, 18 h): 100 mg/mL (≈ 183000 µM); MIC ([17]; 1321E, 18 h): 25 µg/mL (≈ 45.7 µM); MIC ([19]; Staphylococcus aureus, 503, 18 h): 98 µg/mL (≈ 179 µM); MIC ([20]; Pseudomonas aeruginosa, 1771, 18 h): 391 µg/mL (≈ 715 µM)
